From patent US20170042171A1, “METHOD OF HANDLING MANGOES” (AGROFRESH, INC., priority 2011, published 2017)

Assays:
[1] = system: mangoes, Tommy Adkins cultivar; assay: Pulp firmness of mangoes after MAP bag and/or 1-MCP exposure prior to transport simulation (Example 1); format: in vivo, Mangifera indica
Experimental: (§1) Mangoes were evaluated for peel and pulp firmness, which are commercial measures of mango quality, using the following test procedure: • Determination of peel resistant to penetration (peel firmness) was accomplished using a Chatillon penetrometer (model DPPH-100) equipped with a chisel tip (6 mm wide). • Readings were obtained choosing randomly six fruit from each treatment. Each fruit was placed by the side on the penetrometer and then the tip of the instrument (chisel) was stalled into the fruit (about 8 mm deep). Six fruits per treatment were selected and readings were used for obtaining the average value of peel firmness for each treatment. • For testing flesh firmness, the other side of the fruit selected for testing peel resistant to penetration was used. The side not tested for peel resistance to penetration was peeled using a standard fruit peeler (which removed approximately a 2 mm thick peel tissue section). The total area peeled was approximately five square centimeters. • Immediately after removing the peel, each fruit was placed on the penetrometer and a new value of firmness was obtained using the chisel tip (to a depth of about 8 mm). Average values were calculated using six fruits per treatment.
Fruit was harvested from a commercial mango farm (Mango Rica S.A.) located in Liberia, Guanacaste. Costa Rica on Apr. 7, 2011. […]

[2] = system: Mangos, Tommy Atkins variety; assay: Pulp firmness of mangoes after 1-MCP at different concentrations with or without modified B bag, shelf-storage simulation (Example 2); format: in vivo, Mangifera indica; settings: for Pulp Firmness Difference from Control: 10° C. 15 hours, then ca. 22° C. three days
Experimental: as §1
This experiment utilized a modified version of the “B bag”. Rather than three layers, the bag consisted of two extruded layers in an 80/20 ratio with the following composition:
The film was perforated using a laser to give an average hole diameter of 104 micrometers with 52 perforations per bag in four rows. The OTR of the bag was ca. 370 cc/hour.
Mangos, Tommy Atkins variety imported from Guatemala, were kept at a temperature of 10° C. for three days. Portions of the mangos were subjected to one of eight different treatments; control (no 1-MCP or bag), 1-MCP only at 500 ppb, bag only, and bag plus one of five different 1-MCP application rates (50, 100, 500, 1000, and 2500 ppb). Each mango weighed ca. 1.1 Kg. For those mangos placed in bags, the bag contained four fruits for a total of 4.4 Kg of fruit per bag. The 1-MCP applications were made at a temperature of 10° C. for 15 hours. The control and each treated sample were then kept at room temperature (ca. 22° C.) for three days to simulate shelf-storage. Bags were kept closed during the shelf-storage simulation. Pulp firmness was then determined with the following results: […]

## CC1=CC1 [1-MCP, 1-methylcyclopropene]
[1]; 6 mangoes per bag, 500 ppb 1-MCP for 12 hours prior to transport simulation (10-12° C., 18 days), then 18° C.
  Mango Pulp Firmness Difference (Reported as change from control*): −0.03 Lbs.
[1]; MCP exposure prior to transport simulation
  mango quality based on pulp firmness (in words): did not improve the quality of the mangoes
[2]; Treatment 1: 1-MCP 500 ppb, Bag No
  Pulp Firmness Difference from Control: 0.43 Lb.
[2]; Treatment 3: 1-MCP 50 ppb, Bag Yes
  Pulp Firmness Difference from Control: 2.00 Lb.
[2]; Treatment 4: 1-MCP 100 ppb, Bag Yes
  Pulp Firmness Difference from Control: 2.70 Lb.
[2]; Treatment 5: 1-MCP 500 ppb, Bag Yes
  Pulp Firmness Difference from Control: 3.35 Lb.
[2]; Treatment 6: 1-MCP 1000 ppb, Bag Yes
  Pulp Firmness Difference from Control: 2.60 Lb.
[2]; Treatment 7: 1-MCP 2500 ppb, Bag Yes
  Pulp Firmness Difference from Control: 3.29 Lb.
[2]; sum of 1-MCP 500 ppb alone and bag alone
  expected additive effect of the 1-MCP treatment and MAP bag alone on pulp firmness: 1.96 lb
